According to patent US10213415B2, “Compounds as opioid receptor modulators” (JANSSEN PHARMACEUTICA NV, priority 2004, dated 2019):
“And” between values parts separate entries of the source, which are not always exact repeats. Identical values can stand only once. Like-named read-outs stand apart in the source and are kept apart here.

Columns and labels:
[1] = system: novel environment-stressed mice; assay: In Vivo Assay-Stress-Induced Fecal Output (Fecal Output for 1 hr); parameters: species or system mouse; conditions: for Fecal Output (# pellets) cpd: novel environment-stressed mice; for Fecal Output (# pellets) cpd / Fecal Output cpd % control / Fecal Output cpd % NES / response vs control in vivo at 30 mg/kg / response vs control in vivo at 10 mg/kg: 1 hr; for response vs control in vivo at 30 mg/kg / response vs control in vivo at 10 mg/kg: Mus musculus, po, 1 h
Text: This assay evaluates the fecal output in novel environment-stressed mice to that of acclimated controls.
Methods: Adult, male, Crl:CD-1(ICR) mice, weighing ˜30-35 g were used in these studies, with a minimum of 10 mice per dose group. One group of mice was assigned as acclimated, or “non-stressed” controls. These control mice were transported from colony housing, where they were housed 3/cage in polycarbonate cages with access to food and water ad lib. to the procedure room. The mice were removed from their home cages and individually housed in 20 cm wide×20 cm deep×15 cm tall cages, equipped with a wire mesh bottom where they remained for a 16-18 hr period of acclimation to their novel environment. Mice were allowed access to food and water ad lib. during acclimation. The other groups of mice were assigned as non-acclimated, or “stressed” treatment groups. Each mouse in each group was weighed and vehicle, or test compound, was intragastrically administered by oral intubation in 0.5% methylcellulose. Mice were allowed access to water only ad lib. during the test period. After compound administrations, acclimated (control) as well as non-acclimated (stressed) mice were individually housed in a 20 cm wide×20 cm deep×15 cm tall cage, with a wire mesh bottom. An absorbant cardboard is placed beneath the cages. The number of fecal pellets excreted by each mouse was determined at hourly intervals following placement of the mice in the individual cages. Raw Data=# of fecal pellets/mouse/hr. […]

[2] = biological target: T1, human delta subtype 2 opioid receptor (Homo sapiens, UniProt P41143); assay: Human Delta Opioid Receptor Binding Assay (CHO membranes, 3H-Naltrindole); conditions: read-out: hKi δ
T1 construct: purchased Perkin Elmer RBHODM400UA; host or cells: Chinese Hamster Ovary cells (recombinant expression)
Protocol: This assay is designed to test the ability of a compound to interfere with the binding of tritiated Naltrindole to the human delta subtype 2 opioid receptor. Membranes from Chinese Hamster Ovary cells expressing the human delta subtype 2 opioid receptor (Perkin Elmer #RBHODM400UA) are homogenized in assay buffer (50 mM Tris, pH 7.5 with 5 mM MgCl2) using a glass tissue grinder, Teflon pestle and a Steadfast Stirrer (Fisher Scientific). The concentration of membranes is adjusted to 100 μg/mL in assay buffer and 100 μL is dispensed into each well of the assay plate, a 96 well round bottom polypropylene plate. Compounds to be tested are solubilized in DMSO (Pierce), 10 mM, then diluted in assay buffer to 6× the desired final concentration. The ligand, ^3H-Naltrindole (Perkin Elmer #NET-1065) is also diluted in assay buffer to 6 nM. In a second 96 well round bottom polypropylene plate, known as the premix plate, 60 μL of the 6× compound is combined with 60 μL of 6 nM ^3H-Naltrindole. From this premix plate 50 μL is transferred to the assay plate containing the membranes, in duplicate. The assay plate is incubated for 30 min at room temperature. A GF/C 96 well filter plate (Perkin Elmer #6005174) is pretreated with 0.3% polyethylenimine for 30 min. The contents of the assay plate are filtered through the filter plate using a Packard Filtermate Harvester, and washed 3 times with 0.9% saline that is 4° C. The filter plate is dried, the underside sealed, and 30 μL Microscint20 (Packard #6013621) added to each well. A Topcount-NXT Microplate Scintillation Counter (Packard) is used to measure emitted energies in the range of 2.9 to 35 KeV. Results are compared to maximum binding, wells receiving no inhibitors. Nonspecific binding is determined in the presence of 1 μM unlabelled Naltrindole (Sigma #N115).

human mu opioid receptor = biological target: T2, human mu opioid receptor (Homo sapiens, UniProt P35372); assay: Human Mu Opioid Receptor Binding Assay (CHO membranes, 3H-Damgo); conditions: read-out: hKi μ
T2 construct: purchased Perkin Elmer RBHOMM400UA; host or cells: Chinese Hamster Ovary cells (recombinant expression)
Method in brief: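 Radioligand displacement of ³H-Damgo (diluted to 3.6 nM pre-mix) from recombinant human mu receptor in CHO membranes, 2 h, room temperature, 50 mM Tris pH 7.5 with 5 mM MgCl2. Bound label read by filtration and scintillation counting; 1 μM unlabelled Damgo defines nonspecific binding.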

[3] = 30 mg/kg oral, relative to acclimated control
[4] = 30 mg/kg oral, relative to novel environment stress (NES) vehicle group
[5] = 30 mg/kg oral, relative to acclimated control, read-out: Fecal Output cpd % control
[6] = 30 mg/kg oral, relative to novel environment stress (NES) vehicle group, read-out: Fecal Output cpd % NES

T2 sequence (P35372 whole entry): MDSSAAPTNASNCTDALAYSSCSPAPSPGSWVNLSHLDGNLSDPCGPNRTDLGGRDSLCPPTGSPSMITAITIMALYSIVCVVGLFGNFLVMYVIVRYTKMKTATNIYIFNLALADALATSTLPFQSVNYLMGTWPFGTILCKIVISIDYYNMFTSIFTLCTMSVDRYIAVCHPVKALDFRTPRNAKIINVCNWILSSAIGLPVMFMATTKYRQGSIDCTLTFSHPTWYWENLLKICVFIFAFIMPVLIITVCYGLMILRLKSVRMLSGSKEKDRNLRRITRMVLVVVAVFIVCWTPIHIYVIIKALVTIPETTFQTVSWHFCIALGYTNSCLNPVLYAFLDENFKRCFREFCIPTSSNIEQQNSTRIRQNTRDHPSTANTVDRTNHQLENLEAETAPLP
T1 sequence (P41143 whole entry): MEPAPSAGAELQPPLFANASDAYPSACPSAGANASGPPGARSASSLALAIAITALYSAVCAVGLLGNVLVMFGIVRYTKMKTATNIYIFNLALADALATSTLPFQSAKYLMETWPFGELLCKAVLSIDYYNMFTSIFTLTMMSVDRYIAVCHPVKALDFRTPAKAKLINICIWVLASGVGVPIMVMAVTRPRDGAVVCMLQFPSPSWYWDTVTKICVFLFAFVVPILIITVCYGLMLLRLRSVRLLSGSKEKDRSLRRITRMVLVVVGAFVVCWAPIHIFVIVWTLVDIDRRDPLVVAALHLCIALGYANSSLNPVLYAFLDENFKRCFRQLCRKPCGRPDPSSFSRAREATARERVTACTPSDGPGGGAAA

Compound | Fecal Output (# pellets) cpd ([1]; 30 mg/kg oral) [pellets] | Ki [2] [nM] | Ki (human mu opioid receptor) [nM] | response vs control in vivo at 30 mg/kg [1, 5] [%] | response vs control in vivo at 30 mg/kg [1, 6] [%] | further results
Cc1cc(C(N)=O)cc(C)c1C[C@H](N)C(=O)N(C(C)c1ccccc1)[C@@H](C)c1nc(-c2ccccc2)c[nH]1 (single isomer, unassigned) [Cpd 111] | 4.4 | 307 | 6.4 | – | – | Fecal Output cpd % control [1, 3]: 60.8%; Fecal Output cpd % NES [1, 4]: 42.5%
Cc1cc(C(N)=O)cc(C)c1C[C@H](N)C(=O)N(C(C)C)[C@@H](CO)c1nc(-c2ccccc2)c[nH]1 [Cpd 85] | 7.9 | 1170 | 5.4 | 146 | 65.8 | –
Cc1cc(O)cc(C)c1C[C@H](N)C(=O)N(Cc1ccc(Cl)cc1Cl)[C@@H](C)c1nc(-c2ccccc2)c[nH]1 [Cpd 103] | 10.2 | 9.7 | 23 | 140 | 79.1 | –
Cc1cc(O)cc(C)c1C[C@H](N)C(=O)N(Cc1cccnc1)[C@@H](C)c1nc(-c2ccccc2)c[nH]1 [Cpd 92] | 9.2 | 5.4 | 0.25 | 256 | 82.9 | –
Cc1cc(C(N)=O)cc(C)c1C[C@H](N)C(=O)N(Cc1ccccc1)Cc1nc(-c2ccccc2)c[nH]1 [Cpd 107] | 13.1 | 584 | 2.95 | 230 | 87.3 | –
CC(=O)Nc1ccc(CN(C(=O)[C@@H](N)Cc2c(C)cc(O)cc2C)[C@@H](C)c2nc(-c3ccccc3)c[nH]2)cc1 [Cpd 79] | 7.1 | 11.5 | 1.7 | 197 | 97.3 | –
Cc1cc(C(N)=O)cc(C)c1C[C@H](N)C(=O)N(C)[C@H](C)c1nc(-c2ccccc2)c[nH]1 [Cpd 144] | 11.5 | 251 | 1.3 | 311 | 84.6 | –
Cc1cc(C(N)=O)cc(C)c1C[C@H](N)C(=O)N(C(C)c1ccccc1)[C@@H](C)c1nc(-c2ccccc2)c[nH]1 (single isomer, unassigned) [Cpd 112] | 7.2 | 135 | 9.5 | – | – | Fecal Output cpd % control [1, 3]: 100.0%; Fecal Output cpd % NES [1, 4]: 69.9%
CNc1ccc(CN(C(=O)C(N)Cc2c(C)cc(O)cc2C)C(C)c2nc(-c3ccccc3)c[nH]2)cc1 (centres unmarked) [Cpd 78] | 3.3 | 28.9 | 2.4 | 91.7 | 45.2 | –
Cc1cc(O)cc(C)c1C[C@H](N)C(=O)N(Cc1ccc(C(=O)O)cc1)[C@@H](C)c1nc(-c2ccccc2)c[nH]1 [Cpd 80] | – | 0.95 | 1.09 | – | 75.3 | –
Cc1cc(C(N)=O)cc(C)c1C[C@H](N)C(=O)N(C(C)C)[C@@H](C)c1nc(-c2ccccc2)c[nH]1 [Cpd 143] | 5.2 | 69 | 1.6 | 69.3 | 56.5 | Fecal Output (# pellets) cpd ([1]; 10 mg/kg oral): 9.1 pellets; response vs control in vivo at 10 mg/kg ([1]; 10 mg/kg oral, relative to acclimated control, read-out: Fecal Output cpd % control): 246%; response vs control in vivo at 10 mg/kg ([1]; 10 mg/kg oral, relative to novel environment stress (NES) vehicle group, read-out: Fecal Output cpd % NES): 66.9%
Cc1cc(C(N)=O)cc(C)c1C[C@H](N)C(=O)N(Cc1ccccc1)[C@@H](C)c1nc(-c2ccc(Cl)cc2)c(C)[nH]1 [Cpd 58] | 3.9 | 70 | 8.5 | 170 | 55.7 | –
Cc1cc(O)cc(C)c1C[C@H](N)C(=O)N(Cc1nc(-c2cccc(C(=O)O)c2)c(C)[nH]1)C(C)C [Cpd 133] | 9.9 | 108 | 11.5 | 180 | 81.8 | –
Cc1cc(O)cc(C)c1C[C@H](N)C(=O)N(Cc1c(Cl)cccc1Cl)[C@@H](C)c1nc(-c2ccccc2)c[nH]1 [Cpd 97] | 4.8 | 6.3 | 19.2 | 65.8 | 37.2 | # of pellets, Compound (m) 3.0 ([1]; dose 3.0, oral, NES mice, fecal output 1 hr): 14 and 9.1; Fecal pellet output, Compound (% control) 3.0 ([1]; dose 3.0, oral, NES mice, vs acclimated control): 226.2 % control and 189.6 % control; Fecal pellet output, Compound (% NES) 3.0 ([1]; dose 3.0, oral, vs vehicle NES group): 119 % NES and 90.1 % NES; # of pellets, Compound (m) 10.0 ([1]; dose 10.0, oral, NES mice, fecal output 1 hr): 7.5 and 10.4; Fecal pellet output, Compound (% control) 10.0 ([1]; dose 10.0, oral, NES mice, vs acclimated control): 123.0 % control and 216.7 % control; Fecal pellet output, Compound (% NES) 10.0 ([1]; dose 10.0, oral, vs vehicle NES group): 64.66 % NES and 103 % NES; # of pellets, Compound (m) 30.0 ([1]; dose 30.0, oral, NES mice, fecal output 1 hr): 3.5 and 2.3; Fecal pellet output, Compound (% control) 30.0 ([1]; dose 30.0, oral, NES mice, vs acclimated control): 57 % control and 48 % control; Fecal pellet output, Compound (% NES) 30 ([1]; dose 30, oral, vs vehicle NES group): 30.17 % NES and 22.77 % NES
Cc1cc(O)cc(C)c1C[C@H](N)C(=O)N(Cc1ccncc1)[C@@H](C)c1nc(-c2ccccc2)c[nH]1 [Cpd 57] | 7.6 | 2.2 | 0.66 | 195 | 53.9 | –
Cc1cc(O)cc(C)c1C[C@H](N)C(=O)N(Cc1ccoc1)[C@@H](C)c1nc(-c2ccccc2)c[nH]1 [Cpd 55] | 8.3 | 44 | 1.8 | 213 | 58.9 | –
Cc1cc(O)cc(C)c1C[C@H](N)C(=O)N(Cc1ccccc1)[C@H](c1nc(-c2ccccc2)c[nH]1)C(C)C [Cpd 106] | – | 279 | 150 | – | – | –
